Experimental data published in patent US20100204119A1, “4-AMINO-5-OXO-7,8-DIHYDROPYRIMIDO[5,4-F][1,4]OXAZEPIN-6(5H)-YL PHENYL DERIVATIVES” (Pfizer Inc, priority 2009, published 2010).

Molecular target: T1, Human full-length diacylglycerol:acylCoA acyltransferase 1 (DGAT-1) (Homo sapiens, UniProt O75907)
T1 sequence (O75907 1-488): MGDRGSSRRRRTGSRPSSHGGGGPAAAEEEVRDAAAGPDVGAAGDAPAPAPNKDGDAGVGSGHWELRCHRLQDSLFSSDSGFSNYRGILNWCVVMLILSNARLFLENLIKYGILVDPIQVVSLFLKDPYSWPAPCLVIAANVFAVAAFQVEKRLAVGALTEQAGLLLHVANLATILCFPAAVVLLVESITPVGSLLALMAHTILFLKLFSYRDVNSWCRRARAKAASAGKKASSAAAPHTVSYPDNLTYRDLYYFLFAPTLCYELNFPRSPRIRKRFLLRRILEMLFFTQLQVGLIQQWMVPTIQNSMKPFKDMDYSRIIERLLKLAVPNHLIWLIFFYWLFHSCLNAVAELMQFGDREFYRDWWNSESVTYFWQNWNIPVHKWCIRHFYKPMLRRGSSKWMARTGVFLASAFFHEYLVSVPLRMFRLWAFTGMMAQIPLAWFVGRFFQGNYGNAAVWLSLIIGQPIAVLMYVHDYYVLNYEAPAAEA
Test: In vitro assay for inhibition of DGAT-1 activity (DGAT 1 Reduced Microsome Multidose Assay)
Settings: average where n > 1

[1] = Trial 1 Human IC50, Trial 1: as Trial 4 except microsomes at 25 μg/mL instead of 5 μg/mL
[2] = Trial 2 Human IC50, Trial 2: as Trial 4 except eleven concentrations of inhibitor instead of eight
[3] = Trial 3 Human IC50, Trial 3: as Trial 2 except compounds serially diluted in a different laboratory

Method: Human full-length diacylglycerol:acylCoA acyltransferase 1 (DGAT-1) was expressed in Sf9 insect cells which are then lysed and a crude membrane fraction (105,000×g pellet) was prepared.
Inhibitors in DMSO were pre-incubated with membranes before initiating the DGAT-1 reaction by the addition of decanoylCoA. […] The inhibitors were present at a range of eight concentrations to generate an apparent IC50 for each compound. […] Specifically, the eight concentrations used were 3 μM, 1 μM, 300 nM, 100 nM, 30 nM, 10 nM, 3 nM and 1 nM.
The reactions were allowed to proceed for 1.5 hours at room temperature and then terminated by the addition of 20 μl of EDTA (40 mM). Reaction mixture is then mixed by trituration with 30 μl of Microscint™-E (Perkin Elmer). […] Four separate trials were conducted. The method of analysis of Trial 1 was the same as Trial 4 (described above) except microsomes were utilized at 25 μg/mL instead of 5 μg/mL. The method of analysis of Trial 2 was the same as Trial 4 (described above) except eleven (11) concentrations of inhibitor were employed instead of eight (8). The method of analysis of Trial 3 was the same as Trial 2 except the compounds were serially diluted in a different laboratory.
Where this DGAT-1 inhibition assay was performed on a compound more than once, an average is provided for that compound.

Compound	IC50 [1] [nM]	IC50 [2] [nM]	IC50 [3] [nM]
COC[C@H]1CCN(C(=O)C[C@H]2CC[C@H](c3ccc(N4CCOc5ncnc(N)c5C4=O)cc3)CC2)C1 [Example 6F]	84.9	–	–
N#CC1CCN(C(=O)C[C@H]2CC[C@H](c3ccc(N4CCOc5ncnc(N)c5C4=O)cc3)CC2)CC1 [Example 6G]	50.1	–	–
CN(C(=O)C[C@H]1CC[C@H](c2ccc(N3CCOc4ncnc(N)c4C3=O)cc2)CC1)C1CCOCC1 [Example 6H]	53.5	–	–
COCC1CCN(C(=O)C[C@H]2CC[C@H](c3ccc(N4CCOc5ncnc(N)c5C4=O)cc3)CC2)CC1 [Example 6I]	57.8	–	–
COCCN(C)C(=O)C[C@H]1CC[C@H](c2ccc(N3CCOc4ncnc(N)c4C3=O)cc2)CC1 [Example 6J]	51	–	–
Nc1ncnc2c1C(=O)N(c1ccc([C@H]3CC[C@H](CC(=O)N4CCC(F)(F)CC4)CC3)cc1)CCO2 [Example 6L]	105	–	–
Nc1ncnc2c1C(=O)N(c1ccc([C@H]3CC[C@H](CC(=O)N4CCCC(CO)C4)CC3)cc1)CCO2 (stereo partly drawn) [Example 6M]	45.7	–	–
CCN(CCCCO)C(=O)C[C@H]1CC[C@H](c2ccc(N3CCOc4ncnc(N)c4C3=O)cc2)CC1 [Example 6N]	37.5	–	–
Nc1ncnc2c1C(=O)N(c1ccc([C@H]3CC[C@H](CC(=O)N4CCC[C@@H](O)C4)CC3)cc1)CCO2 [Example 6O]	162	–	–
CC(O)C1CCN(C(=O)C[C@H]2CC[C@H](c3ccc(N4CCOc5ncnc(N)c5C4=O)cc3)CC2)CC1 (stereo partly drawn) [Example 6P]	39.3	–	–
Cc1nnc2n1CCN(C(=O)C[C@H]1CC[C@H](c3ccc(N4CCOc5ncnc(N)c5C4=O)cc3)CC1)C2 [Example 6Q]	240	–	–
CCC1(CO)CCN(C(=O)C[C@H]2CC[C@H](c3ccc(N4CCOc5ncnc(N)c5C4=O)cc3)CC2)C1 (stereo partly drawn) [Example 6R]	17.5	–	–
CC(=O)N[C@@H]1CCN(C(=O)C[C@H]2CC[C@H](c3ccc(N4CCOc5ncnc(N)c5C4=O)cc3)CC2)C1 [Example 6S]	192	–	–
Nc1ncnc2c1C(=O)N(c1ccc([C@H]3CC[C@H](CC(=O)N4CCC(CO)C4)CC3)cc1)CCO2 (stereo partly drawn) [Example 6T]	125	–	–
CCN(C(=O)C[C@H]1CC[C@H](c2ccc(N3CCOc4ncnc(N)c4C3=O)cc2)CC1)C(C)(C)CO [Example 6U]	129	–	–
CCCCCN(CCO)C(=O)C[C@H]1CC[C@H](c2ccc(N3CCOc4ncnc(N)c4C3=O)cc2)CC1 [Example 6V]	30.7	–	–
CN(CCc1ccccn1)C(=O)C[C@H]1CC[C@H](c2ccc(N3CCOc4ncnc(N)c4C3=O)cc2)CC1 [Example 6W]	77.7	–	–
Nc1ncnc2c1C(=O)N(c1ccc([C@H]3CC[C@H](CC(=O)N4CCCC4CO)CC3)cc1)CCO2 (stereo partly drawn) [Example 6X]	100	–	–
CC(=O)N1CCN(C(=O)C[C@H]2CC[C@H](c3ccc(N4CCOc5ncnc(N)c5C4=O)cc3)CC2)CC1 [Example 6Y]	167	–	–
CCN(C(=O)C[C@H]1CC[C@H](c2ccc(N3CCOc4ncnc(N)c4C3=O)cc2)CC1)[C@H](C)CO [Example 6Z]	89.6	–	–

More lines, now with the values ahead:

IC50 [1] [nM]	IC50 [2] [nM]	IC50 [3] [nM]	Compound
–	73.1	113	Nc1ncnc2c1C(=O)N(c1ccc(C3CCN(C(=O)Cn4cccn4)CC3)cc1)CCO2 [Example 7AC]
–	41.2	92.3	Nc1ncnc2c1C(=O)N(c1ccc(C3CCN(C(=O)CC4CCCC4)CC3)cc1)CCO2 [Example 7AE]
–	55.1	30	CC(C)(C)OC(=O)N1CCC(c2ccc(N3CCOc4ncnc(N)c4C3=O)cc2)CC1 [Example 7B]
–	98.2	267	C[C@H](O)CC(=O)N1CCC(c2ccc(N3CCOc4ncnc(N)c4C3=O)cc2)CC1 [Example 7D]
–	196	300	Nc1ncnc2c1C(=O)N(c1ccc(C3CCN(C(=O)CC4CCCOC4)CC3)cc1)CCO2 (stereo not drawn) [Example 7E]
–	88.2	290	Cc1ocnc1C(=O)N1CCC(c2ccc(N3CCOc4ncnc(N)c4C3=O)cc2)CC1 [Example 7G]
–	130	258	Cc1ncoc1C(=O)N1CCC(c2ccc(N3CCOc4ncnc(N)c4C3=O)cc2)CC1 [Example 7K]
–	114	180	Nc1ncnc2c1C(=O)N(c1ccc(C3CCN(C(=O)CC4CCOC4)CC3)cc1)CCO2 (stereo not drawn) [Example 7M]
–	119	234	Nc1ncnc2c1C(=O)N(c1ccc(C3CCN(C(=O)Cc4ncccn4)CC3)cc1)CCO2 [Example 7N]
–	138	374	Nc1ncnc2c1C(=O)N(c1ccc(C3CCN(C(=O)CC4CCOCC4)CC3)cc1)CCO2 [Example 7O]
–	50.1	170	Nc1ncnc2c1C(=O)N(c1ccc(C3CCN(C(=O)CC4CCCO4)CC3)cc1)CCO2 (stereo not drawn) [Example 7R]
–	123	217	CS(=O)(=O)CC(=O)N1CCC(c2ccc(N3CCOc4ncnc(N)c4C3=O)cc2)CC1 [Example 7T]
–	205	297	CC(C)[C@H](O)C(=O)N1CCC(c2ccc(N3CCOc4ncnc(N)c4C3=O)cc2)CC1 [Example 7U]
–	113	224	Cc1cc(C(=O)N2CCC(c3ccc(N4CCOc5ncnc(N)c5C4=O)cc3)CC2)no1 [Example 7V]
–	88.4	157	Nc1ncnc2c1C(=O)N(c1ccc(C3CCN(C(=O)C4CCCO4)CC3)cc1)CCO2 (stereo not drawn) [Example 7X]
–	45.7	98.6	Nc1ncnc2c1C(=O)N(c1ccc(C3CCN(C(=O)Cc4ccccc4)CC3)cc1)CCO2 [Example 7Y]
–	105	134	Nc1ncnc2c1C(=O)N(c1ccc(C3CCN(C(=O)C4CCCOC4)CC3)cc1)CCO2 (stereo not drawn) [Example 7Z]
